Experimental data from ChEMBL document CHEMBL6134779, “Design of Proteolytic-Resistant Antifungal Peptides by Utilizing Minimum d-Amino Acid Ratios” (J Med Chem, 2024).
Values after ≈ are worked out from the molar mass of the structure shown. Active and inactive are the calls of the source. No cut-off for these calls is given here.

Legend:
Candida albicans [1] = experiment: Antifungal activity against Candida albicans 56452 assessed as inhibition of fungal growth incubated for 48 hrs; type: functional
Candida albicans [2] = experiment: Antifungal activity against Candida albicans CGMCC 2.2086 assessed as inhibition of fungal growth incubated for 48 hrs in presence of CaCl2; type: functional
[3] = Proteolytic stability of the compound assessed as protease K (unknown origin)-mediated drug degradation measured after 8 hrs by 16.5% tricine-SDS-PAGE analysis; type: ADME; conditions: human
[4] = Stability of the compound in CaCl2 assessed as change in secondary structure by CD spectra analysis; type: physicochemical
Candida albicans [5] = experiment: Fungicidal activity against Candida albicans CGMCC 2.2086 at 1X MIC measured within 90 mins by time-kill assay; type: functional, organism-based
Candida albicans [6] = experiment: Antifungal activity against Candida albicans CGMCC 2.2086 assessed as inhibition of fungal growth incubated for 2 hrs in presence of trypsin; type: functional, organism-based
Candida albicans [7] = experiment: Antifungal activity against Candida albicans CGMCC 2.2086 infected in C57BL/6 mouse keratitis model assessed as reduction in mycelia in the eyes at 5 mg/ml administered as 10 uL eye drop every 5 mins for first 1 hr and every 30 mins for next 7 hrs by Schiff staining based assay; type: functional, organism-based; conditions: route ou, time 8.0 hrs
Candida albicans [8] = experiment: Fungicidal activity against Candida albicans CGMCC 2.2086 measured up to 120 mins by time-kill assay; type: functional, organism-based
Candida albicans [9] = experiment: Antifungal activity against Candida albicans CGMCC 2.2086 assessed as inhibition of fungal growth incubated for 2 hrs in presence of chymotrypsin; type: functional, organism-based
Candida albicans [10] = experiment: Antifungal activity against Candida albicans CGMCC 2.2086 assessed as inhibition of fungal growth incubated for 2 hrs in presence of protease K; type: functional, organism-based
[11] = Stability of the compound in KCl assessed as change in secondary structure by CD spectra analysis; type: physicochemical
Candida albicans [12] = experiment: Antifungal activity against Candida albicans CGMCC 2.2086 assessed as inhibition of fungal growth incubated for 48 hrs in presence of NH4Cl; type: functional
HEK293 = experiment: Cytotoxicity against HEK293 cells assessed as cell death at 64 uM measured after 8 hrs by calcein-AM and propidium iodide Live/Dead dye staining assay; type: toxicity, cell-based; conditions: human, hek293, 8 h
[13] = Proteolytic stability of the compound assessed as trypsin (unknown origin)-mediated drug degradation measured after 8 hrs by RP-HPLC analysis; type: ADME; conditions: human
Candida albicans [14] = experiment: Antifungal activity against Candida albicans CGMCC 2.2086 assessed as inhibition of fungal growth incubated for 2 to 4 hrs in presence of 100% serum; type: functional, organism-based; conditions: time 2-4 hrs
Candida albicans [15] = experiment: Induction of morphological changes in Candida albicans CGMCC 2.2086 assessed as appearance of cell wrinkles at 1X MIC measured after 60 mins by SEM analysis; type: functional, organism-based
Candida albicans [16] = experiment: Induction of morphological changes in Candida albicans CGMCC 2.2086 assessed as appearance of cell pits at 1X MIC measured after 60 mins by SEM analysis; type: functional, organism-based
[17] = Hemolytic activity in human red blood cells assessed as hemolysis rate at 512 uM incubated for 1 hr relative to control; type: toxicity, cell-based, Erythrocyte; conditions: read-out: Activity
Candida albicans [18] = experiment: Antifungal activity against Candida albicans SP3876 assessed as inhibition of fungal growth incubated for 48 hrs; type: functional

CC[C@H](C)[C@H](N)C(=O)N[C@H](C(=O)N[C@H](CCCNC(=N)N)C(=O)N[C@@H](CCCNC(=N)N)C(=O)N[C@@H](Cc1c[nH]cn1)C(=O)N[C@H](C(=O)N[C@H](C(=O)N[C@H](C(=O)N[C@H](C(=O)N[C@H](CCCNC(=N)N)C(=O)N[C@@H](CCCNC(=N)N)C(=O)N[C@@H](Cc1c[nH]cn1)C(=O)N[C@H](C(=O)N[C@H](C(=O)N[C@H](C(=O)N[C@H](C(=O)N[C@H](CCCNC(=N)N)C(=O)N[C@@H](CCCNC(=N)N)C(=O)N[C@@H](Cc1c[nH]cn1)C(=O)N[C@H](C(=O)N[C@H](C(N)=O)[C@@H](C)CC)[C@@H](C)CC)[C@@H](C)CC)[C@@H](C)CC)[C@@H](C)CC)[C@@H](C)CC)[C@@H](C)CC)[C@@H](C)CC)[C@@H](C)CC)[C@@H](C)CC)[C@@H](C)CC
MIC95 (Candida albicans [1]): 2 µM (≈ 5.45 µg/mL)
MIC95 (Candida albicans [2]): 8 µM
Stability [3]: Stable
Stability [4]: Stable
Activity (Candida albicans [5]): Active; Eliminated All Fungal Organisms
Activity (Candida albicans [6]): Active
Activity (Candida albicans [7]): Active; Mycelia In The Eyes Was Either Absent Or Minimal
Activity (Candida albicans [8]): Dose-dependent-effect
Activity (Candida albicans [9]): Active
Activity (Candida albicans [10]): Active
Stability [11]: Stable
MIC95 (Candida albicans [12]): 2 µM
Activity (HEK293): Toxic
Stability [13]: Stable
growth inhibition (GI) (Candida albicans [14]): Active; No Alterations In The Antimicrobial Activity Was Observed In Presence Of Serum
Activity (Candida albicans [15]): Active
Activity (Candida albicans [16]): Active
hemolysis at 1 h, 512 µM [17]: 40.8%
MIC95 (Candida albicans [18]): 2 µM (≈ 5.45 µg/mL)
